Patent US7803364B2, “Multipotent neural stem cells” (The Cleveland Clinic Foundation, priority 2005, dated 2010)

Tests used:
[1] = system: βT4 secondary neurospheres; assay: Secondary βT4 neurosphere differentiation into TuJ1-positive neurons and O4-positive oligodendrocytes; type: cell-based, rat; conditions: PDGF-A alone or in combination with SHH
Description: With this assay, we will determine whether growth factors or secreted products from activated immune cells affect βT4 neurosphere behavior. Using standard neurosphere medium and N2 only medium as positive and negative controls for cell growth, we tested the effects of two concentrations of sonic hedgehog on oligodendrocyte and neuron production.
If βT4 cells represent a CNS stem cell, growth factors should induce βT4 cell division and regulate the production of mature CNS cells. […]
Undissociated secondary neurospheres were plated onto PLL-coated coverslips and analyzed at either 24 hours or 7 days in vitro with DMEM/F12, Glutamax and Penicillin-Streptomycin (1%, Cellgro) with different supplements as follows: N2 (1%); N2 (1%) plus sonic hedgehog (SHH, 1000 ng/ml, R&D, Minneapolis, Minn.); “neurosphere medium” (N2 (1%), EGF (20 ng/ml), FGF2, 20 ng/ml).
βT4 positive cell percentage in control and Ara-C-treated cultures were quantified by counting 10 randomly selected fields using standard fluorescence microscopy and a 20× objective. βT4 positive primary neurosphere and secondary neurosphere percentage were quantified by counting 10 randomly selected fields using a 10× objective. […]

[2] = system: βT4 cells in neurospheres from P4 rat brain lateral ventricle; assay: Ara-C enrichment of βT4 cells in neurosphere cultures; type: cell-based
Description: We developed in vitro methods to study and enrich for βT4 cells. We harvested the lateral and medial wall of the lateral ventricles from P4 rat brain. As shown schematically in FIG. 12A, the tissue was dissociated into single cells and placed in neurosphere assay medium. Four days later, we attached the neurospheres to coverslips and stained for βT4. […] In an attempt to purify or enrich for βT4 cells, we treated P4 neurospheres (on coverslips) with cytosine-β-D-arabinofuranoside (Ara-C; for 4 days), which kills actively dividing cells. We dissociated the remaining cells and placed them in neurosphere-forming conditions for 4 days, plated the resulting neurospheres on coverslips and stained them for βIV tubulin.
The “dissociated” cultures had growth properties similar to the plated primary neurospheres.
Primary neurospheres, generated as described above, were dissociated with trypsin and trituration and then plated onto poly-L-lysine-coated (P-1274, Sigma) coverslips (10^5 cells/12 mm coverslip). The coverslips were incubated in neurosphere medium with cytoarabinoside-C (Ara-C, 10 μM, Sigma) for 4 days. Cells were detached from the coverslips by incubation on ice. […] The neurospheres resulting from these procedures are defined as secondary neurospheres and were analyzed by immunocytochemistry as described above or induced to differentiate.

Substance	effect on differentiation of secondary neurospheres [1]	enrichment in βT4 cells ([2]; Ara-C 4 days versus culture without Ara-C (0.03%)) [fold]	percent of cells in secondary neurospheres βT4-positive ([2]; secondary neurospheres made from Ara-C-resistant primary neurospheres) [%]
PDGF-A: platelet-derived growth factor added alone or with SHH	had not effect on differentiation		
cytosine-β-D-arabinofuranoside [Ara-C]		2700	> 83
